Source: the kinase profiling compilation of Christmann-Franck et al. (2016)

Assays:
Test in all cases: KINOMEscan competition binding
Conditions in all cases: compound 10.0 µM
ERBB2 (human) = ERBB2 (human) (UniProt P04626)
MUSK (human) = MUSK (human) (UniProt O15146)
AKT2 (human) = AKT2 (human) (UniProt P31751)
MAPK1 (human) = MAPK1 (human) (UniProt P28482)
NEK9 (human) = NEK9 (human) (UniProt Q8TD19)
EIF2AK2 (human) = EIF2AK2 (human) (UniProt P19525)
MELK (human) = MELK (human) (UniProt Q14680)
MYLK4 (human) = MYLK4 (human) (UniProt Q86YV6)
MAP3K12 (human) = MAP3K12 (human) (UniProt Q12852)
CAMK2A (human) = CAMK2A (human) (UniProt Q9UQM7)
[1] = biological target: TYK2 JH2 pseudokinase (human) (UniProt P29597)
RPS6KA1 KD1 (human) = RPS6KA1 KD1 (human) (UniProt Q15418)
Sequence of RPS6KA1 KD1 (human) (Q15418 whole entry, looked up): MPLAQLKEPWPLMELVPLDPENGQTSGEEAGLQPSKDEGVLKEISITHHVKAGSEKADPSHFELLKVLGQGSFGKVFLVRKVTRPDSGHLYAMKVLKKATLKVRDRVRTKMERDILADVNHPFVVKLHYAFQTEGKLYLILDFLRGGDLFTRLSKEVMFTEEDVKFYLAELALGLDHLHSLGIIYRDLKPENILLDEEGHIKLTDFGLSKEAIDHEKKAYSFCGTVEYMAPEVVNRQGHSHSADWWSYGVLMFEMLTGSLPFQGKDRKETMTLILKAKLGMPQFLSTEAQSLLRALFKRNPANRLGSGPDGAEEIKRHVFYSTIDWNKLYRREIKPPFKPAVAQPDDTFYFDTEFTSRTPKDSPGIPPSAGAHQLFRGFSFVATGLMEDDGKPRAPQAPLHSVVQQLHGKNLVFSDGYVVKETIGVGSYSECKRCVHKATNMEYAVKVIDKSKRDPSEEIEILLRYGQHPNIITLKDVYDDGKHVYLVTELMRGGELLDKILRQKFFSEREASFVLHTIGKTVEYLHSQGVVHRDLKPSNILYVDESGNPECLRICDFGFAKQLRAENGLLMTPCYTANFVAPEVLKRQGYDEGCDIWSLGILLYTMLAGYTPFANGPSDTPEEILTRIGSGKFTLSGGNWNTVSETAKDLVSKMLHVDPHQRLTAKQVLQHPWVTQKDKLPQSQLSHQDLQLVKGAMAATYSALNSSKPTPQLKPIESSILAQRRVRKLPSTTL

AURKB (human) = AURKB (human) (UniProt Q96GD4)
CSNK1D (human) = CSNK1D (human) (UniProt P48730)
PRKCQ (human) = PRKCQ (human) (UniProt Q04759)
Sequence of PRKCQ (human) (Q04759 whole entry, looked up): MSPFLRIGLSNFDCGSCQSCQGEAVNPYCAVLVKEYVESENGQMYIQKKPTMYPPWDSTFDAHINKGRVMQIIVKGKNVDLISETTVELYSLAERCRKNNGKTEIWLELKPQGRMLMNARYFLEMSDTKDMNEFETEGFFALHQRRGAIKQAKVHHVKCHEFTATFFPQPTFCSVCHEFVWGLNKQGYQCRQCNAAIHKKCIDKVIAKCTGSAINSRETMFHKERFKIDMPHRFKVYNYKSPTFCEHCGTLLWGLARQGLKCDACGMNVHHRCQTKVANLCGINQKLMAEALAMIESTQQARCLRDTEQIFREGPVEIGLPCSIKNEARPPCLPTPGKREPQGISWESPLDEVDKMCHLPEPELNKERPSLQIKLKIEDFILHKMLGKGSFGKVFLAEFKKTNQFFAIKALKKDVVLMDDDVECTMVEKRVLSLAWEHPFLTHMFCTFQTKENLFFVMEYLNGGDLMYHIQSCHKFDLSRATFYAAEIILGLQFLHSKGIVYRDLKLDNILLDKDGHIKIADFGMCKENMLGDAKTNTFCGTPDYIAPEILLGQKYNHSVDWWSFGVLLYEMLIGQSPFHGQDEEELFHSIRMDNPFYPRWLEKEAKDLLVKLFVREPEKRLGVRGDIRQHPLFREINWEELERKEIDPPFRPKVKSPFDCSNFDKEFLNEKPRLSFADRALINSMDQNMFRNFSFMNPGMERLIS

MAPK11 (human) = MAPK11 (human) (UniProt Q15759)
Sequence of MAPK11 (human) (Q15759 whole entry, looked up): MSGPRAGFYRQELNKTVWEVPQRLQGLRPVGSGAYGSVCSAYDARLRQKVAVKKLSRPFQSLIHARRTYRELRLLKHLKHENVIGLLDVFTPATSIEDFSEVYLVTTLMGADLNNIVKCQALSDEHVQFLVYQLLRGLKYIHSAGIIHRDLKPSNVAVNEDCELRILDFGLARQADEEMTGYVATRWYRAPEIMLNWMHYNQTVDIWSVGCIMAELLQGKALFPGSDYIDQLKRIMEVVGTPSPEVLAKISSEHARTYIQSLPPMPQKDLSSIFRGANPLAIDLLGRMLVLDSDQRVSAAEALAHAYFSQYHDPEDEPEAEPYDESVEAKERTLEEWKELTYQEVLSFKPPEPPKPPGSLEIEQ

MLTK (human) = MLTK (human) (UniProt Q9NYL2)
MAPK10 (human) = MAPK10 (human) (UniProt P53779)
SYK (human) = SYK (human) (UniProt P43405)
WEE2 (human) = WEE2 (human) (UniProt P0C1S8)
CHUK (human) = CHUK (human) (UniProt O15111)
Sequence of CHUK (human) (O15111 whole entry, looked up): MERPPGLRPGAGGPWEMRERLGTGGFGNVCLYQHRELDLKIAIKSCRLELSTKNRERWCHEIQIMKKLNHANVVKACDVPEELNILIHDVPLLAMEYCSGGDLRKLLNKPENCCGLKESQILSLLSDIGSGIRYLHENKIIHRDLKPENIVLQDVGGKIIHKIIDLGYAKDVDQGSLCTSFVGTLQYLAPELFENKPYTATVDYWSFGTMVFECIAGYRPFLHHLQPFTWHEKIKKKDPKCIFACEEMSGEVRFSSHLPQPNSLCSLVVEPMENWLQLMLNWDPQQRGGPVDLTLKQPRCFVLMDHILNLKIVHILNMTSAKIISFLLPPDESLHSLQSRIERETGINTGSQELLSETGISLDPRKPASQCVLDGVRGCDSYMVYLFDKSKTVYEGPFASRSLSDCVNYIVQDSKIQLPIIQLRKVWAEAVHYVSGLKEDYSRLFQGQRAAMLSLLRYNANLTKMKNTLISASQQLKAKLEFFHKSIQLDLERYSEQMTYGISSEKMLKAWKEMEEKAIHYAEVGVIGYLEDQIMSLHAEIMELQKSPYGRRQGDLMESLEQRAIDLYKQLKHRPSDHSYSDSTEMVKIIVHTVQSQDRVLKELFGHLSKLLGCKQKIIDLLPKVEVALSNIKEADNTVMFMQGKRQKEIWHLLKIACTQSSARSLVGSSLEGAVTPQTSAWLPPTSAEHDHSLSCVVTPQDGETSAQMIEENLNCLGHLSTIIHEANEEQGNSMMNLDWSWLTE

STK38L (human) = STK38L (human) (UniProt Q9Y2H1)
TEC (human) = TEC (human) (UniProt P42680)
MARK1 (human) = MARK1 (human) (UniProt Q9P0L2)
ACVR2B (human) = ACVR2B (human) (UniProt Q13705)
BRSK1 (human) = BRSK1 (human) (UniProt Q8TDC3)
CLK1 (human) = CLK1 (human) (UniProt P49759)
FYN (human) = FYN (human) (UniProt P06241)
PDGFRB (human) = PDGFRB (human) (UniProt P09619)
RPS6KA5 KD2 (human) = RPS6KA5 KD2 (human) (UniProt O75582)
PAK4 (human) = PAK4 (human) (UniProt O96013)
EPHA4 (human) = EPHA4 (human) (UniProt P54764)
Sequence of EPHA4 (human) (P54764 whole entry, looked up): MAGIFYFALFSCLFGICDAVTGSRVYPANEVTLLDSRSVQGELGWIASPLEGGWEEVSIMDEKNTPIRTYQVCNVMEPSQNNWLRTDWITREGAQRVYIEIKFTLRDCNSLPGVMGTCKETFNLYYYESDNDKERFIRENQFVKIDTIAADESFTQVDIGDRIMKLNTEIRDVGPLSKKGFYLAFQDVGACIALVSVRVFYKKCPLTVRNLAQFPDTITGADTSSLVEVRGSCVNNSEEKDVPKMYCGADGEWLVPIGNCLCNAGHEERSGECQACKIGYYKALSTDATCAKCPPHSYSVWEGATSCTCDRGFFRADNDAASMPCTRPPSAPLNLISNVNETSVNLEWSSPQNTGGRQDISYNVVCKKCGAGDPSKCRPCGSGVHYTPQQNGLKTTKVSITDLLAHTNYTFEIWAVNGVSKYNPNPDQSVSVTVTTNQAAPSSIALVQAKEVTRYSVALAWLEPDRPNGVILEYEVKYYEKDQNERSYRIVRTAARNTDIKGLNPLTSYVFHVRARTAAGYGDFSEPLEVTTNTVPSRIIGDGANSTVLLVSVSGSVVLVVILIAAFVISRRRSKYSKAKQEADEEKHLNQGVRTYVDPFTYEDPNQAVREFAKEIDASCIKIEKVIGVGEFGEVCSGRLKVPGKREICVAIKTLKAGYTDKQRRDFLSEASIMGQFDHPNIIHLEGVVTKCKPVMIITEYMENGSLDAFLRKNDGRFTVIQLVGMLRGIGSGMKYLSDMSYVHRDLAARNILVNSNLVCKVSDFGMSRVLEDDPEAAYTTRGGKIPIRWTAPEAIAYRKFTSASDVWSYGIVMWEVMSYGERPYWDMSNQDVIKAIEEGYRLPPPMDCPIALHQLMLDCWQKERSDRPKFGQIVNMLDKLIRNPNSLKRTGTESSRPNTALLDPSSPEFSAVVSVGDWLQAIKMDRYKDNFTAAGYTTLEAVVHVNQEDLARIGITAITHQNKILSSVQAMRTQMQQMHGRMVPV

MAP4K1 (human) = MAP4K1 (human) (UniProt Q92918)
Sequence of MAP4K1 (human) (Q92918 whole entry, looked up): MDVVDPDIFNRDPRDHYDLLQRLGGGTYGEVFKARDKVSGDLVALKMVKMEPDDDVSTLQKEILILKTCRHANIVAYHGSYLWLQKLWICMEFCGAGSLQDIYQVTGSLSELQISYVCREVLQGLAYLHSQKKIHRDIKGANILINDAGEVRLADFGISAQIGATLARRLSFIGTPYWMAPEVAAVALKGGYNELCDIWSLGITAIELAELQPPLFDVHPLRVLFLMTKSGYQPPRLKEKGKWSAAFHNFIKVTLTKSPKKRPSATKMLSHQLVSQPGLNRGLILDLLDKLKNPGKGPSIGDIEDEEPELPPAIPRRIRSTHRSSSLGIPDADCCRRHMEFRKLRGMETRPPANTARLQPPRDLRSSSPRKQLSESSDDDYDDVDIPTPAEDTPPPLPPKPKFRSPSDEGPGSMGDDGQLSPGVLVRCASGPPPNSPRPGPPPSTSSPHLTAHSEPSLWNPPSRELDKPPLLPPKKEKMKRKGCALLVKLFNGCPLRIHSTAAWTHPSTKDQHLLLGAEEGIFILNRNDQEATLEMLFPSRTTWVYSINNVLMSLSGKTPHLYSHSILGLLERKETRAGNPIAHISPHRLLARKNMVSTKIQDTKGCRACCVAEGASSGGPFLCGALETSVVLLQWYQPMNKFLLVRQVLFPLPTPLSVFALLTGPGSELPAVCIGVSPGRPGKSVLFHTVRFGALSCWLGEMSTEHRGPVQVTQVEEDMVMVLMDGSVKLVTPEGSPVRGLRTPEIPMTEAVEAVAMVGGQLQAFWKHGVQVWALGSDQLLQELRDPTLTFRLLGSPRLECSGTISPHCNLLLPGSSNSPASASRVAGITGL

HIPK1 (human) = HIPK1 (human) (UniProt Q86Z02)
ITK (human) = ITK (human) (UniProt Q08881)
LTK (human) = LTK (human) (UniProt P29376)
DYRK1B (human) = DYRK1B (human) (UniProt Q9Y463)
Sequence of DYRK1B (human) (Q9Y463 whole entry, looked up): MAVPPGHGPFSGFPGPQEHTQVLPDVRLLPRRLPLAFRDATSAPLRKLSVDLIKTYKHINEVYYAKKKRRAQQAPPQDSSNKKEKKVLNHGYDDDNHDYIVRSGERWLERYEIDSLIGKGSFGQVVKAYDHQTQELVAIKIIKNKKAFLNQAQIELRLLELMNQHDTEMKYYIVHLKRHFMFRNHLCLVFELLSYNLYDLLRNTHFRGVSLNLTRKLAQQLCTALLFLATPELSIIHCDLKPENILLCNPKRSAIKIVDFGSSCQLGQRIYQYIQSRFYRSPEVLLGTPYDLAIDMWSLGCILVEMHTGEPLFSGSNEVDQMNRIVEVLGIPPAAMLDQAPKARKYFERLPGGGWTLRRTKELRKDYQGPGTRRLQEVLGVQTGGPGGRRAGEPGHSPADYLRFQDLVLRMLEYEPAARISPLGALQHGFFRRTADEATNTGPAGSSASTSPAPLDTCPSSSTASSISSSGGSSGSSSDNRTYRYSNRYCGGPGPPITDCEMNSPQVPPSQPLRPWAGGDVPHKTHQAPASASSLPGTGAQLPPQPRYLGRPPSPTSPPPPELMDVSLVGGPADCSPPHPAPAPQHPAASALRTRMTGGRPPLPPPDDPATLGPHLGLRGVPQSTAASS

DAPK1 (human) = DAPK1 (human) (UniProt P53355)
PAK3 (human) = PAK3 (human) (UniProt O75914)
CaMK1 (human) = CaMK1 (human) (UniProt Q14012)

| SMILES | kinase still bound, per cent of control (ERBB2 (human)) | kinase still bound, per cent of control (MUSK (human)) | kinase still bound, per cent of control (AKT2 (human)) | kinase still bound, per cent of control (MAPK1 (human)) | kinase still bound, per cent of control (NEK9 (human)) | kinase still bound, per cent of control (EIF2AK2 (human)) | kinase still bound, per cent of control (MELK (human)) | kinase still bound, per cent of control (MYLK4 (human)) | kinase still bound, per cent of control (MAP3K12 (human)) | kinase still bound, per cent of control (CAMK2A (human)) | kinase still bound, per cent of control [1] | kinase still bound, per cent of control (RPS6KA1 KD1 (human)) | kinase still bound, per cent of control (AURKB (human)) | kinase still bound, per cent of control (CSNK1D (human)) | kinase still bound, per cent of control (PRKCQ (human)) | kinase still bound, per cent of control (MAPK11 (human)) | kinase still bound, per cent of control (MLTK (human)) | kinase still bound, per cent of control (MAPK10 (human)) | kinase still bound, per cent of control (SYK (human)) | kinase still bound, per cent of control (WEE2 (human)) | further results |
| --- | --- | --- | --- | --- | --- | --- | --- | --- | --- | --- | --- | --- | --- | --- | --- | --- | --- | --- | --- | --- | --- |
| OCCCNc1cc(-c2ccnc(Nc3cccc(Cl)c3)n2)ccn1 | 100% | 100% | 100% | 100% | 100% | 100% | 100% | 100% | 100% | 100% | 100% | 100% | 100% | 100% | 100% | 100% | 100% | 100% | 100% | 100% | kinase still bound, per cent of control (CHUK (human)): 100%; kinase still bound, per cent of control (STK38L (human)): 100%; kinase still bound, per cent of control (TEC (human)): 100%; kinase still bound, per cent of control (MARK1 (human)): 100%; kinase still bound, per cent of control (ACVR2B (human)): 100%; kinase still bound, per cent of control (BRSK1 (human)): 100%; kinase still bound, per cent of control (CLK1 (human)): 2.2%; kinase still bound, per cent of control (FYN (human)): 100%; kinase still bound, per cent of control (PDGFRB (human)): 100%; kinase still bound, per cent of control (RPS6KA5 KD2 (human)): 100%; kinase still bound, per cent of control (PAK4 (human)): 100%; kinase still bound, per cent of control (EPHA4 (human)): 100%; kinase still bound, per cent of control (MAP4K1 (human)): 100%; kinase still bound, per cent of control (HIPK1 (human)): 4.6%; kinase still bound, per cent of control (ITK (human)): 100%; kinase still bound, per cent of control (LTK (human)): 100%; kinase still bound, per cent of control (DYRK1B (human)): 4%; kinase still bound, per cent of control (DAPK1 (human)): 100%; kinase still bound, per cent of control (PAK3 (human)): 100%; kinase still bound, per cent of control (CaMK1 (human)): 100% |
| O=C(NOC[C@H](O)CO)c1ccc(F)c(F)c1Nc1ccc(I)cc1F | 100% | 68% | 100% | 100% | 82% | 100% | 80% | 100% | 78% | 100% | 100% | 100% | 99% | 100% | 100% | 100% | 88% | 90% | 100% | 77% | kinase still bound, per cent of control (CHUK (human)): 100%; kinase still bound, per cent of control (STK38L (human)): 100%; kinase still bound, per cent of control (TEC (human)): 100%; kinase still bound, per cent of control (MARK1 (human)): 100%; kinase still bound, per cent of control (ACVR2B (human)): 66%; kinase still bound, per cent of control (BRSK1 (human)): 100%; kinase still bound, per cent of control (CLK1 (human)): 95%; kinase still bound, per cent of control (FYN (human)): 64%; kinase still bound, per cent of control (PDGFRB (human)): 66%; kinase still bound, per cent of control (RPS6KA5 KD2 (human)): 100%; kinase still bound, per cent of control (PAK4 (human)): 100%; kinase still bound, per cent of control (EPHA4 (human)): 100%; kinase still bound, per cent of control (MAP4K1 (human)): 77%; kinase still bound, per cent of control (HIPK1 (human)): 91%; kinase still bound, per cent of control (ITK (human)): 97%; kinase still bound, per cent of control (LTK (human)): 100%; kinase still bound, per cent of control (DYRK1B (human)): 98%; kinase still bound, per cent of control (DAPK1 (human)): 100%; kinase still bound, per cent of control (PAK3 (human)): 100%; kinase still bound, per cent of control (CaMK1 (human)): 98% |
| C=CC(=O)Nc1cc(NC(=O)c2ccc(C)c(NC(=O)c3ccno3)c2)cc(C(F)(F)F)c1 | 100% | 100% | 100% | 100% | 100% | 100% | 100% | 97% | 100% | 91% | 100% | 99% | 100% | 100% | 100% | 4.8% | 6% | 86% | 100% | 84% | kinase still bound, per cent of control (CHUK (human)): 100%; kinase still bound, per cent of control (STK38L (human)): 88%; kinase still bound, per cent of control (TEC (human)): 100%; kinase still bound, per cent of control (MARK1 (human)): 100%; kinase still bound, per cent of control (ACVR2B (human)): 100%; kinase still bound, per cent of control (BRSK1 (human)): 100%; kinase still bound, per cent of control (CLK1 (human)): 93%; kinase still bound, per cent of control (FYN (human)): 73%; kinase still bound, per cent of control (PDGFRB (human)): 1.2%; kinase still bound, per cent of control (RPS6KA5 KD2 (human)): 90%; kinase still bound, per cent of control (PAK4 (human)): 93%; kinase still bound, per cent of control (EPHA4 (human)): 48%; kinase still bound, per cent of control (MAP4K1 (human)): 75%; kinase still bound, per cent of control (HIPK1 (human)): 97%; kinase still bound, per cent of control (ITK (human)): 93%; kinase still bound, per cent of control (LTK (human)): 89%; kinase still bound, per cent of control (DYRK1B (human)): 95%; kinase still bound, per cent of control (DAPK1 (human)): 80%; kinase still bound, per cent of control (PAK3 (human)): 100%; kinase still bound, per cent of control (CaMK1 (human)): 88% |
